Source: patent US7034020B2, “Derivatives of butyric acid and uses thereof” (The University of Arkansas for Medical Science, priority 1999, dated 2006)

Legend:
[1] = test system: KLH-specific Th1 cells (clone C3); assay: Cell cycle analysis (DNA content) of IL-2-stimulated Th1 cells; assay type: cell-based, C57BL/10 mice
Protocol: KLH-specific, Th1 cells (clone C3) are left unstimulated (resting), or are stimulated with IL-2 (10% Con A CM) in the presence or absence of MEB (1 mM). The Th1 cells are collected after 48 hours, and assayed for DNA content.
KLH-specific Th1 cells (clone C3) were stimulated with IL-2 (10% Con A CM) at the initiation of culture, and then again at 24, 48, and 96 hours (FIG. 8A). Some cultures also received a single dose of MEB (1 mM) at times 0, 15, 24 or 39 hours after the initiation of culture (FIGS. 8B, 8C, 8D, and 8E, respectively). The Th1 cells were collected at 0, 48, 72, 96 or 120 hours after the initiation of culture and assayed for DNA content.
If the ability of butyrate and its derivatives to induce Th1 cell tolerance is linked to their ability to block antigen-activated Th1 cells in G1, their therapeutic importance is enhanced if MEB induces G1 cell cycle blockade regardless of when in the cell cycle the compound is added. MEB is added to cultures of IL-2-stimulated Th1 at various time points. In the absence of MEB, it is shown that approximately 50% of IL-2-activated Th1 cells have exited G1 by Day 2 (FIG. 8). I n contrast, if MEB is added at the initiation of culture, over 97% of the IL-2-stimulated Th1 cells remain in G0/G1 for the duration of the experiment (120 hours). […] If MEB is added 24 hours instead of 15 hours after IL-2 stimulation, 89% of the Th1 cells are blocked in G1 phase by 48 h, and the cell cycle profile looks very similar to that obtained if MEB is added at the initiation of culture. Finally, even if MEB is added as late as 39 hours after IL-2 stimulation, 87% of the Th1 cells (as compared to 49.9% of controls) are sequestered in G0/G1 when DNA content is measured at 72 hours.
To examine DNA content, Th1 cells were fixed in prechilled 70% ethanol overnight at 4° C. The fixed Th1 cells were next washed in PBS, resuspended in 1 ml of staining buffer containing RNase (1 mg/ml; Sigma) and propidium iodide (50 μg/ml; Sigma), incubated for 20 minutes in the dark at 20° C., and analyzed by flow cytometry using a FACSCalibur (Becton Dickinson, Moutain View, Calif.). The data were analyzed using the ModFit DNA analysis program (Verity Software House).

lymph node CD4+ T cells = assay: Ovalbumin-stimulated proliferation of lymph node CD4+ T cells from treated mice; assay type: in vivo, C57BL/10 mice; settings: MEB 0.15 mmol ip on day 2 or day 3; cells restimulated with ovalbumin in vitro
Protocol: C57BL/10 mice are injected ip with ovalbumin/CFA on day 0, followed by a single ip injection of saline or MEB (0.15 mmol) on Days 2 or 3. The mice are reimmunized with ovalbumin sc on Day 10. Isotype-specific anti-ovalbumin antibody generated during the primary immune response (FIG. 4A), and the secondary immune response (FIG. 4B) are measured in the serum at day 10 and day 16, respectively. (FIG. 4C). […] This experiment was repeated, and the proliferation data represents the means of the two experiments.
If the butyrate derivatives suppressed antibody production to a thymus-dependent antigen by inactivating the antigen-specific CD4^+ T cells required for B cell help, then the butyrate derivatives need only be present during an early stage during which the CD4^+ T cells would otherwise be activated by antigen. […] On day 10 the mice receive 100 μg ovalbumin in conjunction with incomplete Freund's adjuvant sc at the base of the tail. After an additional 7 days, cells from the periaortic and mesenteric lymph nodes were enriched for CD4^+ T cells by negative selection (Griffin et al., 1998). […] Proliferation is measured on day 4 by assessing incorporation of [^3H]-TdR after a 12 hour pulse.

[2] = test system: total anti-ovalbumin antibody in the serum; assay: Primary anti-ovalbumin antibody production in vivo (ELISA), derivatives on Days 1–3; parameters: species or system C57BL/10 mice; settings: 0.091 mmol ip Days 1–3; serum day 10
Protocol: C57BL/10 mice are injected ip on Day 0 with ovalbumin followed by ip injections of saline, or one of three different butyrate derivatives on Days 1–3.
The butyrate derivatives are tested for their ability to suppress lymphocyte activity in vivo. C57BL/10 mice (5 mice/group) are injected ip with 100 μg of ovalbumin in conjunction with complete Freund's adjuvant on Day 0. In one experiment, the mice also receive one ip injection per day of the butyrate derivatives (0.091 mmol) on Days 1–3. Serum samples are obtained 10 days after the initial injection with ovalbumin, and tested for the presence of anti-ovalbumin antibodies using an ELISA. To perform the ELISA 96 well plates (Costar 3595) are first incubated with ovalbumin (100 μl/well of 100 μg/ml in PBS) overnight at 4° C. The plates are then washed 4 times with PBS and 0.5% Tween 20, blocked with 1% fetal calf serum for 30 minutes at 37° C., and washed again. Individual serum samples are added (diluted 1/100 or 1/1000 in PBS), and the plates are incubated for 2 hours at 20° C. The plates were next washed 7 times with PBS/Tween, and alkaline phosphate (AP)-labeled goat anti-mouse IgG, IgA, IgM (H+L) (Zymed) is added ( 1/1000) for 1 hour at 20° C. The plates are again washed 7 times with PBS/Tween, alkaline phosphate substrate (1 mg/ml) is added. After 10 minutes, Ig levels are quantified by an ELISA reader (absorbance 405 nm). The concentration of anti-ovalbumin is determined by comparison with a standard curve obtained using mouse anti-ovalbumin antibody (Sigma; St. Louis, Mo.). To measure isotype-specific anti-ovalbumin antibodies, serum samples (diluted at 1/300 or 1/1000) are incubated on the ovalbumin-coated plates as described above. […] Ig levels are presented as OD measurements.

SMILES: CCCC(=O)OCCN1CCOCC1.Cl [MEB, 2-(4-Morpholinyl)ethyl butyrate hydrochloride]
- Th1 cells remaining in G0/G1 ([1]; IL-2 (10% Con A CM) plus MEB 1 mM, 48 hours): essentially all
- IL-2-stimulated Th1 cells in G0/G1 ([1]; MEB 1 mM added 15 hours after IL-2, by 96 hours (control 56.9%)): 79.3%
- IL-2-stimulated Th1 cells in G1 ([1]; MEB 1 mM added 24 hours after IL-2, by 48 h): 89%
- IL-2-stimulated Th1 cells in G0/G1 ([1]; MEB 1 mM added 39 hours after IL-2, at 72 hours (control 49.9%)): 87%
- IL-2-stimulated Th1 cells in G0/G1 ([1]; MEB 1 mM added at initiation of culture, for duration of experiment (120 hours)): over 97%
- Antigen-specific proliferation of CD4+ T cells from antigen-primed mice (lymph node CD4+ T cells): significant loss of antigen-specific proliferation
- Decrease of primary anti-ovalbumin antibody response versus saline [2]: 65%
